Test results: article PMC5543107, “Inhibition of glutamate decarboxylase (GAD) by ethyl ketopentenoate (EKP) induces treatment-resistant epileptic seizures in zebrafish” (Scientific Reports, 2017)
“And” between values parts separate entries of the source, which are not always exact repeats. Equal values may be shown once.

Key:
GAD = target: GAD; design: method as in PMID 29640; details: in vitro studies; read-out: Ki for GAD inhibition; cited from earlier work
zebrafish larvae = test system: zebrafish larvae; design: method as in PMID 25845493; details: AG 200 mM − 300 mM; cited from earlier work
mice = test system: mice; design: method as in PMID 29640; details: intracerebroventricular (icv) administration; cited from earlier work
[1] = test system: EKP-treated zebrafish larvae; assay: Effect of ASDs on EKP-induced epileptiform discharges (LFP); assay type: in vivo, Danio rerio; details: ASD at MTC, 18 h pre-incubation, 400 µM EKP, 10-min LFP recording
Procedure: Then, the larvae were treated with 400 µM EKP (or VHC), embedded in agarose, and the LFP recordings were performed as described earlier.

[2] = test system: EKP-treated zebrafish larvae; assay: Effect of ASDs on EKP-induced locomotion activity; assay type: in vivo, Danio rerio; details: ASD at MTC, 18 h pre-incubation, 400 µM EKP
Procedure: Then, the larvae were treated with 400 µM EKP (or VHC) and the locomotion activity was monitored for 30 min (after 5 min of habituation) as described earlier. The average amount of movement per 5-min intervals was measured, quantified and normalized to the EKP control group for the entire 30-min tracking session or per 5-min interval.

[3] = test system: EKP-treated Tg(elavl3:GA) zebrafish larvae; assay: Effect of ASDs on EKP-induced neuroluminescent events; assay type: in vivo, Danio rerio; details: ASD at MTC (ETS 250 µM, TGB 50 µM), 18 h, 400 µM EKP, 30-min recording
Procedure: Recordings were performed as described earlier.

c-fos expression = c-fos expression in larval heads by qPCR; assay type: in vivo, Danio rerio; details: 7 dpf larval heads, 15 min, 400 μM EKP or 20 mM PTZ (positive control)
Procedure: To measure the seizure-related changes in c-fos mRNA expression in the CNS, 12 larvae (7 dpf) were treated with either 20 mM PTZ, 400 μM EKP or VHC for 15 min and then rapidly decapitated. The heads were immediately processed for RNA isolation followed by cDNA synthesis as described for gad1b and gad2. qPCR analysis of c-fos mRNA expression using Bio-Rad 20x PrimePCR assays (c-fos assay ID: qDreCED0015103) was performed as described for gad1b and gad2, and normalized to the housekeeping gene ef1α and β-actin 1 (primers, Table S1).

[4] = test system: Tg(elavl3:GA) zebrafish larvae; assay: Neuroluminescence recording of Tg(elavl3:eGFP-apoAequorin) larvae exposed to EKP; assay type: in vivo, Danio rerio; details: 400 µM EKP, 30-min recording, vs VHC
Procedure: Tg(elavl3:eGFP-apoAequorin) zebrafish larvae were visually screened for even GFP expression at 3 dpf. Selected larvae were incubated with VHC in 40 µM CLZN-h for 18–24 h in the dark at 28 °C[38]. Excess of CLZN-h was removed by washing larvae repeatedly in E3 medium afterwards. […] The recordings started each time exactly 5 min after EKP exposure and were continued for 30 min. Photons emitted were detected by a photon-counting tube (Type H3460–04, Hamamatsu Photonics, Japan) that was positioned about 2 cm above the larvae. Light impulses were discriminated, prescaled and counted with a PC-based 32-bit counter/timer board (PCI-6601, National Instruments Corporation, Austin, TX, USA). The number of impulses occurring during a 5-sec time interval was monitored with custom-built software. Analysis of the bioluminescence recordings was done in a blinded way.

7 dpf zebrafish larvae [5] = assay: EKP-induced locomotor activity, automated video tracking; assay type: in vivo, Danio rerio
Procedure: Larvae (6 dpf) in 100 µl VHC were arrayed individually in a 96-well plate (tissue culture plate, flat bottom, Falcon, USA) and kept for 18 h in the dark at 28 °C. Prior to tracking the following day (7 dpf) 100 μl of VHC or EKP stock solution was added to each well to obtain a range of EKP concentrations (200 μM-800 μM). The plates were placed in an automated video tracking device (ZebraBox^TM apparatus; Viewpoint, Lyon, France) and 5 min later the locomotor behavior of the larvae was monitored for 2 h in the dark at 28 °C. Locomotor activity was quantified using ZebraLab™ software (Viewpoint, Lyon, France) and expressed in “actinteg” units per 5-min interval. The actinteg value is defined as the sum of all image pixel changes detected during the time window.
These seizures are defined as rapid corkscrew-like accompanied with entire body jerking and twitching, which are easily distinguished from other behavioral abnormalities (for description of phase 1 and 3 seizures, see results).

7 dpf zebrafish larvae [6] = assay: Local field potential (LFP) recordings in the optic tectum after EKP; assay type: in vivo, Danio rerio
Procedure: Larvae (6 dpf) in 100 µl VHC were arrayed individually in a 96-well plate and kept for 18 h in the dark at 28 °C. […] Next, the treated larva was embedded ventral side down in 2% low melting point agarose bathed in artificial cerebrospinal fluid (ACSF, 124 mM NaCl, 2 mM KCl, 2 mM MgSO4, 2 mM CaCl2, 1.25 mM KH2PO4, 26 mM NaHCO3, and 10 mM glucose). A blunt glass electrode (soda lime glass, Hilgenberg, Germany) was pulled with DMZ Universal Puller (Zeitz, Germany) to an opening of 15–20 microns, filled with ACSF and placed on the skin above the optic tectum. The recordings were performed using WinEDR (John Dempster, University of Strathclyde, UK). Differential signal was band pass filtered at 0.3–300 Hz and digitized at 2 kHz via a PCI-6251 interface (National Instruments, UK). LFP recordings started each time exactly 2 min after the removal of the larva from the EKP solution (or VHC) and were continued for 10 min at room temperature (24 °C).
EKP-induced events were considered as epileptiform activity when their signal exceeded three times the baseline and lasted for minimum 100 msec, as described previously. Electrophysiological recordings were analyzed in a blinded way using Clampfit 10.2 software (Molecular Devices, USA).

7 dpf zebrafish larvae [7] = assay: Survival rate of larvae exposed to EKP; assay type: in vivo, Danio rerio; details: 400 μM EKP, first 30 min
Procedure: Larvae (7 dpf) were arrayed individually in a 96-well plate, exposed to EKP (200 μM-800 μM) or VHC (control) and immediately scored under a stereomicroscope for lethality every 5 min for 1 h.

[8] = 7 dpf larvae, 200-800 μM tested

C=CCC(N)C(=O)O (stereo not drawn) [AG, 2-amino-4-pentenoic acid]
Ki (GAD): ~50 mM | Outcome of seizures at high AG concentrations (zebrafish larvae): lethal

C=CC[C@@H](N)C(=O)O [D-AG]
ED50 for seizure induction (mice): 0.804 mg/kg

C=CCC(=O)C(=O)O [KPA, 2-keto-4-pentenoic acid]
Ki (GAD): 0.001 mM | ED50 for seizure induction (mice): 0.0145 mg/kg

C=CC[C@H](N)C(=O)O [L-AG]
ED50 for seizure induction (mice): 0.375 mg/kg

N#Cc1ccccc1-c1cc(-c2ccccn2)cn(-c2ccccc2)c1=O [PER, perampanel]
Effect on number of epileptiform discharges generated by EKP [1]: significantly attenuated | Effect on EKP-induced locomotion (whole 30-min recording) [2]: significantly prevented | Effect on EKP-induced neuronal activity (cumulative photons emitted) [3]: significantly diminished

O=C1NC(=O)C(c2ccccc2)(c2ccccc2)N1 [PHT, phenytoin]
Effect on number of epileptiform discharges generated by EKP [1]: did not show significant effects | Effect on EKP-induced neuronal activity (cumulative photons emitted) [3]: significantly diminished

C1CCc2nnnn2CC1 [PTZ, Pentylenetetrazol]
c-fos expression compared to VHC (c-fos expression): significantly increased

CCOC(=O)Nc1ccc(NCc2ccc(F)cc2)cc1N [RGB, retigabine]
Effect on number of epileptiform discharges generated by EKP [1]: did not show significant effects | Effect on EKP-induced neuronal activity (cumulative photons emitted) [3]: significantly diminished

CC1(C)O[C@@H]2[C@@H](CO[C@@]3(COS(N)(=O)=O)OC(C)(C)O[C@@H]23)O1 [TPM, topiramate]
Effect on number of epileptiform discharges generated by EKP [1]: significantly attenuated | Effect on EKP-induced neuronal activity (cumulative photons emitted) [3]: significantly diminished

NS(=O)(=O)Cc1noc2ccccc12 [ZSM, zonisamide]
Effect on number of epileptiform discharges generated by EKP [1]: significantly attenuated | Effect on EKP-induced neuronal activity (cumulative photons emitted) [3]: significantly diminished

ethyl ketopentenoate [EKP]
Averaged aequorin light signal [4]: increased | Locomotor activity (7 dpf zebrafish larvae [5]; 400 μM EKP, 7 dpf larvae, vs VHC): robust increase of locomotor activity | EKP concentrations at which a second phase (hyperactivity plateau) followed (7 dpf zebrafish larvae [5]; [8]): ≥ 300 µM | EKP concentrations with third phase (irreversible decline of total larval movement, paralysis, death) (7 dpf zebrafish larvae [5]; [8]): 300 to 800 µM | Fold lower concentration inducing hyperactivity compared with AG (7 dpf zebrafish larvae [5]; zebrafish larvae, AG data ref 13): 100 fold | Mean frequency of epileptiform events (7 dpf zebrafish larvae [6]; 400 μM EKP 15 min, optic tectum, 10-min recording, n = 58): 55.76 ± 6.87 events/10 min and 55.76 ± 6.872 events/10 min | Larvae with multiple epileptiform events (7 dpf zebrafish larvae [6]; 400 μM EKP, number of larvae out of total): 58/58 | Larval death (7 dpf zebrafish larvae [7]): without inducing any larval death | c-fos expression compared to VHC (c-fos expression): significantly increased
